Tests used:
[1] = cited from earlier work
[2] = biological target: T1, MMP-9 (Homo sapiens, UniProt P14780); details: cited from earlier work
[3] = biological target: T2, MMP-2 (Homo sapiens, UniProt P08253); details: cited from earlier work
T2 sequence (P08253 110-660): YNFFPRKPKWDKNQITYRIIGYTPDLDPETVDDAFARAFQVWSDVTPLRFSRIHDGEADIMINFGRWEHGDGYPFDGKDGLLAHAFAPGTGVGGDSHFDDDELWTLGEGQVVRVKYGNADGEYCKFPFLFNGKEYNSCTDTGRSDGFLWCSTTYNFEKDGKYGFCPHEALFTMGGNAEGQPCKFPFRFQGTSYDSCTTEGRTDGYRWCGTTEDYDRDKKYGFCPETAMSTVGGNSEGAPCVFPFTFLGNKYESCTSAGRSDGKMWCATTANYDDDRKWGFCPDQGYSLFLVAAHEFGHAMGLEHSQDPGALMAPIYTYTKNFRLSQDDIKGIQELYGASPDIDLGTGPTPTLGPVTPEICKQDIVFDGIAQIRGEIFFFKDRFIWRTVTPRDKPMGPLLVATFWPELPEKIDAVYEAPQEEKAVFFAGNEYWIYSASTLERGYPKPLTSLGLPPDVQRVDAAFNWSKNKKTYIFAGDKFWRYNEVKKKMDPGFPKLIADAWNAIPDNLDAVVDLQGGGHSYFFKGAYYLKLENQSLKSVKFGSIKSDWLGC

[4] = biological target: cell surface-associated CD44 of IS-CD8+ T cells (UniProt P15379)
[5] = system: α1-antitrypsin
[6] = biological target: T3, MMP-7 (Homo sapiens, UniProt P09237); details: read-out: EC50 against MMP-7; cited from earlier work
T3 sequence (P09237 95-267): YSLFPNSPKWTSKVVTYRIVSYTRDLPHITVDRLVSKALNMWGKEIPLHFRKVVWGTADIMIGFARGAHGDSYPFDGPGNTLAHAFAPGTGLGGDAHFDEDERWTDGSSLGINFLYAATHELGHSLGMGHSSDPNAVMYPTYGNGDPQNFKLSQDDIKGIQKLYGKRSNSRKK

[7] = system: MT1-MMP; details: read-out: EC50 against MT1-MMP; cited from earlier work
[8] = system: Zucker diabetic fatty rats; details: cited from earlier work
[9] = biological target: T1, MMP-9; details: read-out: EC50 against MMP-9; cited from earlier work
[10] = biological target: T3, MMP-7; details: read-out: IC50 for MMP-7 inhibition; cited from earlier work
[11] = biological target: cell surface-associated CD44 of IS-CD8+ T cells (mouse) (UniProt P15379); experiment: cell-based or functional assay
[12] = system: MT1-MMP; details: HT1080 fibrosarcoma cell line; cited from earlier work
[13] = system: CD44; experiment: Cleavage of cellular CD44 by external MT1-MMP-CAT in IS-CD8+ cells (FACS, Western blotting); assay type: cell-based, NOD mouse; details: GM6001 50 μM added to cells co-incubated with MT1-MMP-CAT
Method: Treatment of Cells with MT1-MMP-CAT—The catalytic domain of MT1-MMP (MT1-MMP-CAT; 3 μg) was co-incubated for 2 h at 37° C. with IS-CD8^+ cells (1×10^7 cells) in 0.2 ml of 50 mM HEPES, 10 Mm CaCl2, 0.5 mM MgCl2, 50 μM ZnCl2, and 0.01% Brij-35 buffer, pH 6.8. Where indicated, GM6001 (50 μM; Chemicon, Temecula, Calif.) was added to the samples. Following treatment, the cells were injected into the irradiated mice or used for DiI labeling, Western blotting, FACS analysis, and other analytical procedures (Savinov, A. Y., et al. (2003); Deryugina, E. I., et al. (2001); Rozanov, D. V., et al. (2001)).
Western Blotting—IS-CD8^+ cells were surface biotinylated for 1 h at 4° C. with 0.1 mg/ml sulfo-NHS-LC-biotin (Pierce, Rockford, Ill.). Following washes to remove biotin, cells were co-incubated for 2 h with MT1-MMP-CAT in serum-free, unsupplemented Click's medium. […]
Monoclonal Antibodies and FACS Analysis—IS-CD8^+ cells were stained with the MT1-MMP (Ab815; Chemicon), CD44 (clone IM7.8.1), CD3 (clone 17A2), and CD49d (clone SG31) monoclonal antibodies (all from BD Biosciences, Rockville, Md.) and the CD29 monoclonal antibody (Chemicon), followed by staining with fluorescein isothiocyanate- or phycoerythrinconjugated secondary antibody (BD Biosciences), and then analyzed on a FACScan flow cytometer (Becton Dickinson, Franklin Lakes, N.J.). […]

[14] = system: CD44 shedding in IS-CD8+ cells; experiment: CD44 shedding in adherent IS-CD8+ cells, Western blotting; assay type: cell-based, NOD mouse; details: Example 1: adherent IS-CD8+ cells on gelatin
Method: Western Blotting—IS-CD8^+ cells were surface biotinylated for 1 h at 4° C. with 0.1 mg/ml sulfo-NHS-LC-biotin (Pierce, Rockford, Ill.). Following washes to remove biotin, cells were co-incubated for 2 h with MT1-MMP-CAT in serum-free, unsupplemented Click's medium. The cells were then lysed with 50 mM N-octyl-β-D-glucopyranoside in phosphate-buffered saline supplemented with 1 mM CaCl2, 1 mM MgCl2, and protease inhibitor mixture containing phenylmethylsulfonyl fluoride (1 mM) and aprotinin, pepstatin, and leupeptin (1 μg/ml each). Biotin-labeled CD44 was captured from the cell lysate and from the medium aliquots on streptavidin-agarose beads. The captured samples were examined by Western blotting with the CD44 (clone IM7.8.1) antibody to determine the released, soluble, CD44 ectodomain in the medium samples and the residual, membrane-anchored, cellular CD44 in the cell lysates.
Western blotting—IS-CD8^+ cells were surface biotinylated for 1 hr at 4° C. with 0.1 mg/ml of sulfo-NES-LC-biotin (Pierce). Following washes to remove biotin, the labeled cells were allowed to adhere in serum-free medium to plastic coated with 2% type I collagen/gelatin for 4 h or were kept in suspension. Under these experimental conditions, the vast majority of the cells became attached to gelatin. […] The cells were then lysed with 50 mM N-octyl-β-D-glucopyranoside in PBS supplemented with 1 mM CaCl2, 1 mM MgCl2, and protease inhibitor cocktail containing phenylmethylsulfonyl fluoride (1 mM) and aprotinin, pepstatin, and leupeptin (1 μg/ml each). Biotin-labeled CD44 was captured from the cell lysate and from the medium aliquots on streptavidine-Agarose beads. The captured samples were examined by Western blotting with the CD44 (clone IM7.8.1) antibody to determine the released, soluble, CD44 ectodomain in the medium samples and the residual, membrane-anchored, cellular CD44 in the cell lysates.

[15] = biological target: T4, MT1-MMP (Mus musculus, UniProt P53690); experiment: MT1-MMP-dependent MMP-2 activation in adherent IS-CD8+ cells, gelatin zymography; assay type: cell-based, NOD mouse; details: Example 1: adherent IS-CD8+ cells on gelatin, 4 h
T4 construct: Endogenous MT1-MMP is latent in non-adherent IS-CD8^+ cells; endogenous in cells; host or cells: IS-CD8+ T cells (TGNFC8 clone, NOD mouse), adherent to gelatin
Method: MT1-MMP-dependent MMP-2 Activation and Gelatin Zymography—IS-CD8^+ cells (1×10^6) were either allowed to adhere for 4 h in serum-free unsupplemented Click's medium to plastic coated with 2% gelatin or kept in solution. Under these experimental conditions, the vast majority of cells became attached to gelatin. In 4 h, media samples (30 μl each) were withdrawn and analyzed by gelatin zymography (Deryugina, E. I., et al. (2001)) to identify the proteolytic activity and the activation status of MMP-2 naturally synthesized by IS-CD8^+ cells. Where indicated, cells were supplemented with external purified pro-MMP-2 (20 ng). Pro-MMP-2 was isolated from a conditioned medium of p2AHT2A72 cells derived from an HT1080 fibrosarcoma cell line sequentially transfected with the E1A and MMP-2 cDNAs (Strongin, A. Y., et al. (1995)).
MT1-MMP-dependent MMP-2 activation and gelatin zymography—IS-CD8^+ cells (1×10^6) were either allowed to adhere for 4 h in serum-free unsupplemented Click's medium to the plastic coated with 2% gelatin or kept in solution. In 18 h, media samples (30 μl each) were withdrawn and analyzed by gelatin zymography (Deryugina, E. I., et al. (2001)) to identify the proteolytic activity and the activation status of MMP-2 naturally synthesized by IS-CD8^+ cells. […] Pro-MMP-2 was isolated from a conditioned medium of p2AHT2A72 cells derived from an HT1080 fibrosarcoma cell line sequentially transfected with the E1A and MMP-2 cDNAs (Strongin, A. Y., et al. (1995)).

T1 sequence (P14780 94-707, species assumed): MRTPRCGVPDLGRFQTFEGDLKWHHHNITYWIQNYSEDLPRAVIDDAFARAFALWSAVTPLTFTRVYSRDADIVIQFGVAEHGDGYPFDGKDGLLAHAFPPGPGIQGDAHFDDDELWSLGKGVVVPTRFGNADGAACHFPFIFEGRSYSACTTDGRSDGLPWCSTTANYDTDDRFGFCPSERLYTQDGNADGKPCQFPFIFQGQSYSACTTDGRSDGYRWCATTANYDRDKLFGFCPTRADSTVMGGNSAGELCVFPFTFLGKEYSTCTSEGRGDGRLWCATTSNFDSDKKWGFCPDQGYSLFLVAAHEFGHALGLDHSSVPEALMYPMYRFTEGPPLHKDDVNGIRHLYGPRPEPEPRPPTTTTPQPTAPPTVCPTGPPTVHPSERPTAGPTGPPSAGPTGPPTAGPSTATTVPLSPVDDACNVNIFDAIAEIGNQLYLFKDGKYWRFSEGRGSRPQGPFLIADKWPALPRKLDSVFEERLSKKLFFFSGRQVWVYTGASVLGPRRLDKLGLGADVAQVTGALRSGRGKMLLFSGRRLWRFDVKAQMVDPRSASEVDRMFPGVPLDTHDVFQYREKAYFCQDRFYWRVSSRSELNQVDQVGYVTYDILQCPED
cell surface-associated CD44 of IS-CD8+ T cells, sequence (P15379 23-778): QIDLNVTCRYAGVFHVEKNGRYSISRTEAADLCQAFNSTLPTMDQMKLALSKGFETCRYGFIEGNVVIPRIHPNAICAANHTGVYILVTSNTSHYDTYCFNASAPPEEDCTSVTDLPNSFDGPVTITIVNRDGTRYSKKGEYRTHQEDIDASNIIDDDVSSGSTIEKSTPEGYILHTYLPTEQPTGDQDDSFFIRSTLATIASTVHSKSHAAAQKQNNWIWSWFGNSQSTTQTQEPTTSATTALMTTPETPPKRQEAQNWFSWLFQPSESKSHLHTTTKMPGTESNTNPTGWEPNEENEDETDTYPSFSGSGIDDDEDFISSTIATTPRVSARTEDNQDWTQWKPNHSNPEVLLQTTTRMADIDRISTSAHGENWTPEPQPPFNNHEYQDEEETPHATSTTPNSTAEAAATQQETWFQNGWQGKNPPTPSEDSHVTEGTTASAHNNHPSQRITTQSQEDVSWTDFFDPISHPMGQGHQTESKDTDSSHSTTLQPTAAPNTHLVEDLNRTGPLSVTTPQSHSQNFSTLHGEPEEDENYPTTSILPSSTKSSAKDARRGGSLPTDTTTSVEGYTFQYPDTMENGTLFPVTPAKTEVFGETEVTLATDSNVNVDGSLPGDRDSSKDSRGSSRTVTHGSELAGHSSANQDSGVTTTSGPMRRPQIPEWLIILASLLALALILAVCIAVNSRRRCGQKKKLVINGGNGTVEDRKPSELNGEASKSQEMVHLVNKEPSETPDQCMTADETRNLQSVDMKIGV
cell surface-associated CD44 of IS-CD8+ T cells (mouse), sequence (P15379 23-778): as above

Compound: O=C(C[C@H](CSc1ccccc1)C(=O)O)c1ccc(-c2ccc(Cl)cc2)cc1 [BAY 12-9566]
- time to peak plasma concentrations after dosing ([1]; after oral administration): 0.5 to 2 h
- linearity of pharmacokinetics ([1]; normal volunteers, doses of up to 100 mg/day): linear
- effect of repeated administration on clearance ([1]; repeated administration): increased clearance
- IC50 for MMP-9 inhibition [2]: below 0.13 μg/mL
- IC50 for MMP-2 inhibition [3]: below 0.13 μg/mL

Compound: cell surface-associated MT1-MMP of IS-CD8+ T cells
- release of CD44 proteolytic fragments into medium, Western blotting [4]: release of the CD44 proteolytic fragments into medium was detected only in adherent IS-CD8^+ cells

Compound: MMP-2 (as incubated with α1-antitrypsin)
- cleavage of α1-antitrypsin in vitro, reducing SDS-gel electrophoresis [5]: the MMP-2 proteolysis of α1-antitrypsin (a sensitive and readily available protein substrate of MMPs) and converting this 61 kDa serpin into a 55 kDa degradation fragment

Compound: CC(C)[C@H](NS(=O)(=O)c1ccc(-c2ccc(Br)cc2)cc1)C(=O)O [PD166793, (S)-2-(4′-bromo-biphenyl-4-sulfonylamino)-3-methyl-butyric acid]
- EC50 [6]: 7.2 µM
- EC50 [7]: 0.24 µM
- β cell mass [8]: preserved β cell mass
- EC50 [9]: 7.9 µM

Compound: CNC(=O)[C@H](Cc1ccccc1)NC(=O)[C@H](CC(C)C)[C@H](CSc1cccs1)C(=O)NO [Batimastat]
- IC50 ([2]; read-out: IC50 for MMP-9 inhibition): < 0.0209 µM
- IC50 [10]: < 0.0209 µM

Compound: catalytic domain of MT1-MMP (MT1-MMP-CAT) (enzyme)
- homing of DiI-labeled IS-CD8+ cells into the pancreatic islets of NOD mice, 24 h [11]: 4.5 fold

Compound: O=P(O)(O)C(Cl)(Cl)P(=O)(O)O [Clodronate]
- expression of MT1-MMP protein and messenger RNA [12]: inhibited

Compound: CNC(=O)[C@H](Cc1c[nH]c2ccccc12)NC(=O)[C@@H](CC(=O)NO)CC(C)C [GM6001]
- effect on MT1-MMP-CAT cleavage of cellular CD44 [13]: reversed the effect of MT1-MMP-CAT
- shedding of CD44 in adherent cells [14]: blocked
- activation of MMP-2 in adherent cells [15]: blocked

Source: US20070203244A1, “INHIBITORS OF MEMBRANE TYPE-1 MATRIX METALLOPROTEINASE FOR THE TREATMENT OF INSULIN-DEPENDENT DIABETES MELLITUS” (priority 2006, published 2007)
